pEC50, pIC50: −log10 of the molar value. Where two headings read alike, the source gives them in different places.
Tests used:
tumor cells = experiment: Tumor cell killing by other microtubule polymerization inhibitors with Plk1 inhibitors; assay type: cell-based; conditions: in combination with Plk1 inhibitors
Protocol: For dose response experiments and experiments that examine synergy as a measure of change in relative viability, cells were grown in 384-well plates in triplicate. The following day the cells were subjected to a drug dose matrix that consisted of increasing concentrations of a Plk inhibitor, increasing concentrations of a microtubule polymerization inhibitor, and all pairwise combinations. Drugs were dissolved in DMSO and diluted in the appropriate cell growth media while maintaining a constant final concentration of DMSO. After five days, relative viability was assessed using […]-GLO™ (Promega) Luminescent Cell Viability Assay according to the manufacturer's recommendations. Luminescence was measured using an […]™ M200 Pro plate reader (Tecan Group Ltd.). […] The dose response plots (for example FIG. 1A) show sensitivity to increasing concentrations of a microtubule polymerization inhibitor in the absence or presence of a constant amount of Plk inhibitor. Bars represent the standard error of the mean. The concentration of Plk inhibitor chosen to presented was based on a ˜20-30% reduction of viability when that drug was used at that dose in isolation. The entire amount of greater-than-additive response observed in the dose matrix is the integrated volume between the observed and expected surfaces generated by the response matrix and is also known as Bliss Volume. […]

mouse xenograft models = conditions: 10 mg/kg and 20 mg/kg on days 1 and 28; cited from earlier work
[1] = tested on: C4-2 CRPC xenograft tumors; experiment: Microwell tumor-implantable device, apoptotic index in xenograft tumors; assay type: in vivo, mice; conditions: half-dose BI2536 with half-dose TH588 versus monotherapy wells, 24 hours after implantation, p<0.01, FIG. 2B
Protocol: C4-2 CRPC xenograft tumors were grown in four to six week old castrated male NCR nude mice. Five million C4-2 cells in 200 μl serum free media, mixed 1:1 with growth factor reduced […]® (Invitrogen) were injected into the hind flank subcutaneously using a 23 gauge needle. Tumors took four to eight weeks to grow. Microdose drug delivery devices were manufactured, implanted, and analyzed as described by Jonas, O., et al. Science Translational Medicine, 7(284): 284ra57 (2015). […] Tumors were excised 24 hours after device implantation, fixed in 10% formalin for 24 hours, and embedded in paraffin. Sections were stained with cleaved caspase-3 antibody (Cell Signaling Technologies, 9664) followed by detection with horseradish peroxidase conjugated secondary antibody and diaminobenzidine with hematoxylin used as a counterstain. Images were viewed using an EVOS® Cell Imaging System (Invitrogen) microscope, and scored using ImageJ in a blinded manner. Apoptotic index (Al) was calculated as the percentage of cells that were cleaved caspase-3-positive within […] of the reservoir-tissue interface.

C4-2 CRPC cells [2] = experiment: Flow cytometry for mitotic cells (phospho-Ser10 Histone H3); assay type: cell-based; conditions: TH588 with Plk1 inhibitor BI2536, 0 to 48 hours, FIG. 1B
Protocol: (§1) C4-2 CRPC cells were plated in 6-well plates at a density of 300,000 cells per well and a total volume of 3 mls. The next day drugs were diluted in the appropriate growth media while maintaining a constant concentration of DMSO and added to the wells. After the indicated amount of time, cells were harvested by trypsinization. The media, trypsin and PBS wash were collected together to avoid loss of loosely attached or detached cells. Cells were fixed in 4% formaldehyde in PBS for 15 minutes, washed with PBS containing 1% bovine serum albumin (PBS-BSA), and then stored in methanol at −20° C. overnight. Cells were then washed twice in PBS-BSA 0.1% Tween-20, incubated with primary antibodies overnight at 4° C., washed with PBS-BSA 0.1% Tween-20 and incubated for 1 hour with fluorescent-dye conjugated secondary antibodies (diluted 1:200, Alexa Fluor, Molecular Probes) at room temperature for 1 hour. Primary antibodies included anti-phospho-serine 10 histone H3 (clone 3H10, Millipore) and anti-active caspase-3 (clone C92-605, BD Pharmingen). The fixed cells were then washed with PBS-BSA 0.1% Tween-20 and resuspended in PBS containing 1 μg/ml 4,6-diamidino-2-phenylindole (DAPI, Molecular Probes) to stain DNA and analyzed using a BD™ LSRII flow cytometer (Becton Dickinson) and the FLOWJO™ software package. Shown is the average of three replicates±standard error of the mean.

non-cancer cells = experiment: Combination synergy (Bliss Volume) in non-cancer cell lines; assay type: cell-based; conditions: TH588 with a Plk1 inhibitor; FIG. 3
Protocol: (§2) All cell lines were cultured in a humidified incubator at 37° C. and with 5% CO2, were maintained sub-confluent and used for no more than 20 passages. Media was supplemented with 10% fetal bovine serum (FBS), contained 2 mM glutamine and lacked antibiotics, unless otherwise noted. […]
(§3) For dose response experiments and experiments that examine synergy as a measure of change in relative viability, cells were grown in 384-well plates in triplicate. […] After five days, relative viability was assessed using […]-GLO™ (Promega) Luminescent Cell Viability Assay according to the manufacturer's recommendations. Luminescence was measured using an […]™ M200 Pro plate reader (Tecan Group Ltd.). […]

C4-2 CRPC cells [3] = experiment: Flow cytometry for apoptotic cells (cleaved caspase-3); assay type: cell-based; conditions: TH588 with Plk1 inhibitor BI2536, 0 to 48 hours, FIG. 1C
Protocol: as §1

tubulin = experiment: Microtubule polymerization in vitro; assay type: biochemical
[4] = tested on: C4-2 castrate resistant prostate cancer (CRPC) cells; experiment: Relative viability after drug dose matrix (CellTiter-Glo, Bliss Independence) in C4-2 cells; assay type: cell-based; conditions: for effect of the combination of TH588 with a Plk1 inhibitor: each Plk1 inhibitor in combination with TH588, relative viability
Protocol: All cell lines were cultured in a humidified incubator at 37° C. and with 5% CO2, were maintained sub-confluent and used for no more than 20 passages. Media was supplemented with 10% fetal bovine serum (FBS), contained 2 mM glutamine and lacked antibiotics, unless otherwise noted. A549, BT-20, CCD-1112sk, CCD-18co, CFPAC1, HCT 116, HeLa, HT-29, HT55, MCF7, MDA-MB-157, MDA-MB-231, MDA-MB-415, MDA-MB-436, MDA-MB-453, MDA-MB-468, SW48, T98G, U-2 OS, U-87 MG, CAOV3, COV362, and JIMT1 cells were grown in DMEM; 22RV1, AU565, C4-2, CAL33, COL0205,HCC38, HCT-15, KYSE150, LNCaP, LOVO, NCI-H1299, PC-3, ZR-75-1, HCC1419, HCC1569, HCC1954, ZR7530, OVCAR-4, OVCAR8 cells were grown in RPMI 1640; HT1197, HT1376, J82, UMUC3 cells were grown in MEM; OV90, TOV122D, TOV21G cells were grown in 1:1 MCDB105:Medial99 15% FBS; 59M, OAW28, OAW42 cells were grown in Advanced DMEM 0.023 IU/ml insulin; ES2, SKOV3 cells were grown in McCoy's 5A; JHOS2, JHOS4 cells were grown in 1:1 DMEM:HamF12; HUVEC cells were grown in EBM with EGM™-2 BULLETKIT™
For dose response experiments and experiments that examine synergy as a measure of change in relative viability, cells were grown in 384-well plates in triplicate. The following day the cells were subjected to a drug dose matrix that consisted of increasing concentrations of a Plk inhibitor, increasing concentrations of a microtubule polymerization inhibitor, and all pairwise combinations. Drugs were dissolved in DMSO and diluted in the appropriate cell growth media while maintaining a constant final concentration of DMSO. After five days, relative viability was assessed using […]-GLO™ (Promega) Luminescent Cell Viability Assay according to the manufacturer's recommendations. Luminescence was measured using an […]™ M200 Pro plate reader (Tecan Group Ltd.). […] The dose response plots (for example FIG. 1A) show sensitivity to increasing concentrations of a microtubule polymerization inhibitor in the absence or presence of a constant amount of Plk inhibitor. Bars represent the standard error of the mean. The concentration of Plk inhibitor chosen to presented was based on a ˜20-30% reduction of viability when that drug was used at that dose in isolation. The entire amount of greater-than-additive response observed in the dose matrix is the integrated volume between the observed and expected surfaces generated by the response matrix and is also known as Bliss Volume. Bliss Volume synergy metrics are presented in FIG. 3 as the fractional change in volume between the expected and observed response surfaces.

[5] = tested on: cancer cell lines of various origin; experiment: Combination synergy (Bliss Volume) in cancer cell lines of various origin; assay type: cell-based; conditions: TH588 with a Plk1 inhibitor; approximately thirty cell lines, in the majority of these; FIG. 3
Protocol: as §2, §3

[6] = tested on: HT-29 human colorectal tumors; conditions: cited from earlier work
BT20 cells = conditions: 200 mg/kg; cited from earlier work
[7] = tested on: Bel-7402, MCF-7, and MIA-PaCa cells; conditions: 250 mg/kg; cited from earlier work
[8] = cited from earlier work; for maximum tolerated dose: elderly patients with relapsed/refractory AML
[9] = target: several tyrosine kinases and cyclin-dependent kinase 1; conditions: read-out: IC50, tyrosine kinases and Cdk1; cited from earlier work
Plk1 = Plk1 (Homo sapiens, UniProt P53350); conditions: cited from earlier work
Sequence of Plk1 (P53350 whole entry): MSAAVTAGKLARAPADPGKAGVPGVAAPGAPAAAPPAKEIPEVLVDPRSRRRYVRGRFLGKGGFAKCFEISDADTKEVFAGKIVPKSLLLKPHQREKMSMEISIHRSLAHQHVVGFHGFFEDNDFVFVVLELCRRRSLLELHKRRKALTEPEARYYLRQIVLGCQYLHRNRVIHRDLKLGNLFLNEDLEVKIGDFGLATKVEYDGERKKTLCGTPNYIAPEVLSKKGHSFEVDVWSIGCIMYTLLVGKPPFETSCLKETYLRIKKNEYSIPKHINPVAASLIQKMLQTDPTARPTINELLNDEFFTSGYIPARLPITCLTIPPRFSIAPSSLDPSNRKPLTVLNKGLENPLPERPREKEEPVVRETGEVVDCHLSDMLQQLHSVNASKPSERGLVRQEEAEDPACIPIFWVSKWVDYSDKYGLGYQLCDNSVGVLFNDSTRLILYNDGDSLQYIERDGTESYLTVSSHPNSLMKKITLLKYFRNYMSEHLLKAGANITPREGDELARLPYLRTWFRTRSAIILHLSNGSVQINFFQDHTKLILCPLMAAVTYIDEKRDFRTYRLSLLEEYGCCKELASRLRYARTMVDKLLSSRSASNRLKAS

cell mitosis = conditions: read-out: EC50, inhibition of cell mitosis; cited from earlier work
[10] = tested on: Cdc25C-T96 phosphorylation; conditions: direct readout of PLK1 inhibition; cited from earlier work
[11] = cited from earlier work
HCT 116 xenografts = conditions: cited from earlier work
BxPC-3 = conditions: twice-weekly; cited from earlier work
A549 = conditions: twice-weekly; cited from earlier work

Compound: COC(=O)Nc1nc2ccc(C(=O)c3cccs3)cc2[nH]1 [nocodazole]
- effect when used with Plk1 inhibitors in killing tumor cells (tumor cells): more-than-additive effect

Compound: COc1ccc(S(=O)(=O)Nc2ccccc2/C=C/c2cc[n+]([O-])cc2)cc1 [HMN-176]
- antitumor activity in mouse xenograft models (mouse xenograft models): potent antitumor activity

Compound: Nc1nc(NC2CC2)cc(-c2cccc(Cl)c2Cl)n1 [TH588]
- effect on tumor cell killing in vivo (cleaved caspase-3 positive cells) [1]: more-than-additive
- mitotic arrest with the combination (C4-2 CRPC cells [2]): greater than additive
- effect of killing by the drug combination in non-cancer cells (non-cancer cells): not more than additive
- apoptotic cancer cell killing with the combination (C4-2 CRPC cells [3]): greater than additive
- microtubule polymerization in vitro (tubulin): inhibits microtubule polymerization
- effect of killing cancer cells by the combination of Plk1 inhibitors with TH588, versus each alone ([4]; C4-2 CRPC cells, TH588 with BI2536, five days, Bliss Independence model, FIG. 1A): more than additive
- effect of tumor cell killing using the combination treatment [5]: more than additive

Compound: COc1cc(C(=O)NC2CCN(C)CC2)ccc1Nc1ncc2c(n1)N(C1CCCC1)CC(F)(F)C(=O)N2C [RO3280]
- antitumor activity when dosed more frequently ([6]; dosed more frequently): complete tumor regression
- tumor growth inhibition ([6]; once weekly at 40 mg/kg): 72%

Compound: COc1cc(OC)c(/C=C/S(=O)(=O)Cc2ccc(OC)c(NCC(=O)[O-])c2)c(OC)c1.[Na+] [ON 01910]
- tumor growth in xenograft model (BT20 cells): inhibition of tumor growth
- tumor growth in xenograft models [7]: inhibited tumor growth
- MTD ([8]; i.v., days 1, 4, 8, 11, 15, and 18 in 28-day cycles, advanced solid tumors): 3,120 mg
- pIC50 [9]: 6.59 to 7.74

Compound: COc1cc(C(=O)N[C@H]2CC[C@H](N3CCN(C)CC3)CC2)ccc1Nc1ncc2c(n1)N(C1CCCC1)CC1(CC1)C(=O)N2C [Plogosertib]
- pIC50 (Plk1): 8.52

Compound: MLN0905
- pEC50 (cell mitosis): 8.05
- pEC50 [10]: 7.54
- maximum tolerated dose ([11]; QD (daily) schedule): 6.25 mg/kg
- maximum tolerated dose ([11]; QDx3/wk (3-days on/4-days off) schedule): 14.5 mg/kg

Compound: COc1ccc(S(=O)(=O)N(C(C)=O)c2ccccc2/C=C/c2cc[n+]([O-])cc2)cc1 [HMN-214]
- MTD ([8]; 5 consecutive days every 4 weeks, based on previous patient treatment load): 18 to 30 mg/m^2
- doses at which DLTs were observed ([8]; 5 consecutive days every 4 weeks): 24 to 48 mg/m^2
- maximum tolerated dose and recommended dose ([8]; continuous 21-day dosing every 28 days): 8.0 mg/m^2/d
- dose with dose-limiting toxicities ([8]; continuous 21-day dosing every 28 days, myalgia/bone pain syndrome and hyperglycemia): 9.9 mg/m^2/d

Compound: CN1CCN(c2ccc(OC(F)(F)F)c(Nc3ncc4c(n3)-c3c(c(C(N)=O)nn3CCO)CC4)c2)CC1 [onvansertib]
- effect of the combination of TH588 with a Plk1 inhibitor [4]: more than additive

Compound: C[C@@H](Oc1cc(-n2cnc3ccc(CN4CCN(C)CC4)cc32)sc1C(N)=O)c1ccccc1C(F)(F)F [GSK461364]
- final recommended phase II dose ([8]; intravenously, schedule A (days 1, 8, and 15 of 28-day cycle)): 225 mg
- incidence of venous thrombotic emboli (VTE) ([8]; phase I, advanced solid tumors): 20%
- effect of the combination of TH588 with a Plk1 inhibitor [4]: more than additive

Compound: CC[C@]1(O)C[C@@H]2C[N@@](CCc3c([nH]c4ccccc34)[C@@](C(=O)OC)(c3cc4c(cc3OC)N(C=O)[C@H]3[C@@](O)(C(=O)OC)[C@H](OC(C)=O)[C@]5(CC)C=CCN6CC[C@]43[C@@H]65)C2)C1 [vincristine]
- effect when used with Plk1 inhibitors in killing tumor cells (tumor cells): more-than-additive effect

Compound: CC[C@@H]1C(=O)N(C)c2cnc(Nc3ccc(C(=O)NC4CCN(C)CC4)cc3OC)nc2N1C1CCCC1 [BI2536]
- T/C, HCT 116 xenografts (HCT 116 xenografts; 50 mg/kg once per week): 15%
- T/C, HCT 116 xenografts (HCT 116 xenografts; 50 mg/kg twice per week): 0.3%
- MTD suggested by other studies ([8]; Frost et al.): 50 to 70 mg
- maximum tolerated dose ([8]; day 1 schedule): 350 mg
- maximum tolerated dose ([8]; days 1+8 schedule): 200 mg
- maximum tolerated dose (MTD) in combination with pemetrexed ([8]; intravenous, NSCLC, day 1 every 3 weeks): 300 mg
- dose at which dose-limiting toxicities occurred ([8]; with 500 mg/m^2 pemetrexed, NSCLC, day 1 every 3 weeks, two DLT): 325 mg
- effect of the combination of TH588 with a Plk1 inhibitor [4]: more than additive
- T/C, BxPC-3 model (BxPC-3): 5%
- T/C, A549 model (A549): 14%

— patent US20230263783A1, “CANCER TREATMENT BY COMBINED INHIBITION OF POLO-LIKE KINASE AND MICROTUBULE POLYMERIZATION” (Massachusetts Institute of Technology, priority 2022, published 2023)
